Measurements: patent US9115122B2, “Non-ATP dependent inhibitors of extracellular signal-regulated kinase (ERK)” (UNIVERSITY OF MARYLAND, BALTIMORE, priority 2012, dated 2015)

Assays:
Test in all cases: Cell proliferation WST-1 assay, single dose (Example 4)
Type in all cases: cell-based
Conditions in all cases: 100 μM, 48 hours
[1] = system: HL-60 leukemic cells
Procedure: (§1) In addition, compounds were tested in RPMI-7951 cells, which also contain mutated BRaf and are resistant to BRaf inhibitors due to the overexpression of MAP3K8 (the gene encoding COT/Tp12) that provides an alternative mechanism to indirectly or directly activate ERK proteins. […] For comparison, HeLa cervical carcinoma and Jurkat T-cell leukemia cells, which are p53 defective cancer cell lines but contain no known activating mutations in the ERK pathway, were studied. […] Cell proliferation was evaluated by water soluble tetrazolium-1 (WST-1) assay as previously described. Briefly, cells (˜5000/well) were seeded in 96 well plates, allowed to recover for 16-20 hours, and then treated with the indicated test compound for 48 hours. After incubation, WST-1 reagent was added and absorbance was read at 450 nm with background subtraction taken at 650 nm. Values were normalized to the control (DMSO only treated) cells.

[2] = system: A375 melanoma cells
Procedure: as §1

[3] = system: RPMI-7951 melanoma cells
Procedure: as §1

[4] = system: SK-MEL-28 melanoma cells
Procedure: as §1

[5] = system: Jurkat T-cell leukemia cells
Procedure: as §1

[6] = system: HeLa cervical carcinoma cells
Procedure: as §1

CCOc1ccc(/C=C2\SC(=O)N(CCNC(=O)OCC(C)C)C2=O)cc1 [Compound 26c, (Z)-isobutyl (2-(5-(4-ethoxybenzylidene)-2,4-dioxothiazolidin-3-yl)ethyl)carbamate]
Cell Viability (% of Vehicle) HL-60 [1]: 80 ± 28 % of Vehicle | Cell Viability (% of Vehicle) A375 [2]: 102 ± 4 % of Vehicle | Cell Viability (% of Vehicle) RPMI-7951 [3]: 75 ± 12 % of Vehicle | Cell Viability (% of Vehicle) SK-MEL-28 [4]: 94 ± 1 % of Vehicle | Cell Viability (% of Vehicle) Jurkat [5]: 110 ± 4 % of Vehicle | Cell Viability (% of Vehicle) HeLa [6]: 95 ± 3 % of Vehicle

CCOc1ccc(/C=C2\SC(=O)N(CCNC(=O)C(F)(F)F)C2=O)cc1 [Compound 25b, (Z)—N-(2-(5-(4-ethoxybenzylidene)-2,4-dioxothiazolidin-3-yl)ethyl)-2,2,2-trifluoroacetamide]
Cell Viability (% of Vehicle) HL-60 [1]: 101 ± 23 % of Vehicle | Cell Viability (% of Vehicle) A375 [2]: 118 ± 4 % of Vehicle | Cell Viability (% of Vehicle) RPMI-7951 [3]: 127 ± 3 % of Vehicle | Cell Viability (% of Vehicle) SK-MEL-28 [4]: 105 ± 2 % of Vehicle | Cell Viability (% of Vehicle) Jurkat [5]: 103 ± 6 % of Vehicle | Cell Viability (% of Vehicle) HeLa [6]: 98 ± 11 % of Vehicle

CCOc1ccc(/C=C2\SC(=O)N(CCNS(=O)(=O)c3ccc(C#N)cc3)C2=O)cc1 [Compound 27b, (Z)-4-cyano-N-(2-(5-(4-ethoxybenzylidene)-2,4-dioxothiazolidin-3-yl)ethyl)benzenesulfonamide]
Cell Viability (% of Vehicle) HL-60 [1]: 101 ± 52 % of Vehicle | Cell Viability (% of Vehicle) A375 [2]: 109 ± 6 % of Vehicle | Cell Viability (% of Vehicle) RPMI-7951 [3]: 99 ± 4 % of Vehicle | Cell Viability (% of Vehicle) SK-MEL-28 [4]: 95 ± 3 % of Vehicle | Cell Viability (% of Vehicle) Jurkat [5]: 103 ± 3 % of Vehicle | Cell Viability (% of Vehicle) HeLa [6]: 90 ± 4 % of Vehicle

CCOc1ccccc1/C=C1\SC(=O)N(CCN)C1=O [Compound 30c, (Z)-3-(2-aminoethyl)-5-(2-ethoxybenzylidene)thiazolidine-2,4-dione]
Cell Viability (% of Vehicle) HL-60 [1]: 8.9 ± 4 % of Vehicle | Cell Viability (% of Vehicle) A375 [2]: 22 ± 9 % of Vehicle | Cell Viability (% of Vehicle) RPMI-7951 [3]: 45 ± 2 % of Vehicle | Cell Viability (% of Vehicle) SK-MEL-28 [4]: 52 ± 11 % of Vehicle | Cell Viability (% of Vehicle) Jurkat [5]: 66 ± 5 % of Vehicle | Cell Viability (% of Vehicle) HeLa [6]: 39 ± 3 % of Vehicle

CCOc1ccc(/C=C2\SC(=O)N(CCNC(=O)OC(C)(C)C)C2=O)cc1 [Compound 26b, (Z)-tert-butyl (2-(5-(4-ethoxybenzylidene)-2,4-dioxothiazolidin-3-yl)ethyl)carbamate]
Cell Viability (% of Vehicle) HL-60 [1]: 95 ± 21 % of Vehicle | Cell Viability (% of Vehicle) A375 [2]: 88 ± 3 % of Vehicle | Cell Viability (% of Vehicle) RPMI-7951 [3]: 67 ± 4 % of Vehicle | Cell Viability (% of Vehicle) SK-MEL-28 [4]: 83 ± 5 % of Vehicle | Cell Viability (% of Vehicle) Jurkat [5]: 111 ± 9 % of Vehicle | Cell Viability (% of Vehicle) HeLa [6]: 88 ± 5 % of Vehicle

CCOc1ccc(/C=C2\SC(=O)N(CC(=O)O)C2=O)cc1 [Compound 28h, (Z)-2-(5-(4-ethoxybenzylidene)-2,4-dioxothiazolidin-3-yl)acetic acid]
Cell Viability (% of Vehicle) HL-60 [1]: 97 ± 27 % of Vehicle | Cell Viability (% of Vehicle) A375 [2]: 122 ± 6 % of Vehicle | Cell Viability (% of Vehicle) RPMI-7951 [3]: 133 ± 9 % of Vehicle | Cell Viability (% of Vehicle) SK-MEL-28 [4]: 106 ± 1 % of Vehicle | Cell Viability (% of Vehicle) Jurkat [5]: 108 ± 3 % of Vehicle | Cell Viability (% of Vehicle) HeLa [6]: 104 ± 3 % of Vehicle

CCOc1ccc(/C=C2\SC(=O)N(Cc3ccccn3)C2=O)cc1 [Compound 28j, (Z)-5-(4-ethoxybenzylidene)-3-(pyridin-2-ylmethyl)thiazolidine-2,4-dione]
Cell Viability (% of Vehicle) HL-60 [1]: 89 ± 31 % of Vehicle | Cell Viability (% of Vehicle) A375 [2]: 124 ± 6 % of Vehicle | Cell Viability (% of Vehicle) RPMI-7951 [3]: 114 ± 5 % of Vehicle | Cell Viability (% of Vehicle) SK-MEL-28 [4]: 95 ± 3 % of Vehicle | Cell Viability (% of Vehicle) Jurkat [5]: 101 ± 7 % of Vehicle | Cell Viability (% of Vehicle) HeLa [6]: 89 ± 5 % of Vehicle

CCOc1ccc(/C=C2\SC(=O)N(Cc3ccccc3C(=O)O)C2=O)cc1 [Compound 28s, (Z)-2-((5-(4-ethoxybenzylidene)-2,4-dioxothiazolidin-3-yl)methyl)benzoic acid]
Cell Viability (% of Vehicle) HL-60 [1]: 31 ± 15 % of Vehicle | Cell Viability (% of Vehicle) A375 [2]: 39 ± 1 % of Vehicle | Cell Viability (% of Vehicle) RPMI-7951 [3]: 45 ± 8 % of Vehicle | Cell Viability (% of Vehicle) SK-MEL-28 [4]: 49 ± 8 % of Vehicle | Cell Viability (% of Vehicle) Jurkat [5]: 46 ± 1 % of Vehicle | Cell Viability (% of Vehicle) HeLa [6]: 61 ± 4 % of Vehicle

CCOc1ccc(/C=C2\SC(=O)N(CCNC(=O)OCC3c4ccccc4-c4ccccc43)C2=O)cc1 [Compound 26e, (Z)-(9H-fluoren-9-yl)methyl (2-(5-(4-ethoxybenzylidene)-2,4-dioxothiazolidin-3-yl)ethyl)carbamate]
Cell Viability (% of Vehicle) HL-60 [1]: 103 ± 13 % of Vehicle | Cell Viability (% of Vehicle) A375 [2]: 43 ± 3 % of Vehicle | Cell Viability (% of Vehicle) RPMI-7951 [3]: 27 ± 3 % of Vehicle | Cell Viability (% of Vehicle) SK-MEL-28 [4]: 29 ± 7 % of Vehicle | Cell Viability (% of Vehicle) Jurkat [5]: 139 ± 14 % of Vehicle | Cell Viability (% of Vehicle) HeLa [6]: 85 ± 4 % of Vehicle

NCCN1C(=O)S/C(=C\c2ccccc2O)C1=O [Compound 30i, (Z)-3-(2-aminoethyl)-5-(2-hydroxybenzylidene)thiazolidine-2,4-dione]
Cell Viability (% of Vehicle) HL-60 [1]: 24 ± 8 % of Vehicle | Cell Viability (% of Vehicle) A375 [2]: 78 ± 3 % of Vehicle | Cell Viability (% of Vehicle) RPMI-7951 [3]: 102 ± 10 % of Vehicle | Cell Viability (% of Vehicle) SK-MEL-28 [4]: 85 ± 9 % of Vehicle | Cell Viability (% of Vehicle) Jurkat [5]: 99 ± 5 % of Vehicle | Cell Viability (% of Vehicle) HeLa [6]: 68 ± 3 % of Vehicle

CCOc1ccc(/C=C2\SC(=O)N(CCCl)C2=O)cc1 [Compound 28f, (Z)-3-(2-chloroethyl)-5-(4-ethoxybenzylidene)thiazolidine-2,4-dione]
Cell Viability (% of Vehicle) HL-60 [1]: 99 ± 14 % of Vehicle | Cell Viability (% of Vehicle) A375 [2]: 113 ± 9 % of Vehicle | Cell Viability (% of Vehicle) RPMI-7951 [3]: 128 ± 3 % of Vehicle | Cell Viability (% of Vehicle) SK-MEL-28 [4]: 97 ± 3 % of Vehicle | Cell Viability (% of Vehicle) Jurkat [5]: 99 ± 5 % of Vehicle | Cell Viability (% of Vehicle) HeLa [6]: 87 ± 4 % of Vehicle

CCOc1ccc(/C=C2\SC(=O)N(CCNC(=O)c3ccc(C#N)cc3)C2=O)cc1 [Compound 25d, (Z)-4-cyano-N-(2-(5-(4-ethoxybenzylidene)-2,4-dioxothiazolidin-3-yl)ethyl)benzamide]
Cell Viability (% of Vehicle) HL-60 [1]: 101 ± 12 % of Vehicle | Cell Viability (% of Vehicle) A375 [2]: 118 ± 3 % of Vehicle | Cell Viability (% of Vehicle) RPMI-7951 [3]: 122 ± 10 % of Vehicle | Cell Viability (% of Vehicle) SK-MEL-28 [4]: 103 ± 2 % of Vehicle | Cell Viability (% of Vehicle) Jurkat [5]: 102 ± 7 % of Vehicle | Cell Viability (% of Vehicle) HeLa [6]: 99 ± 9 % of Vehicle

CCOc1ccc(/C=C2\SC(=O)N(CC(=O)OC(C)(C)C)C2=O)cc1 [Compound 28g, (Z)-tert-butyl 2-(5-(4-ethoxybenzylidene)-2,4-dioxothiazolidin-3-yl)acetate]
Cell Viability (% of Vehicle) HL-60 [1]: 95 ± 18 % of Vehicle | Cell Viability (% of Vehicle) A375 [2]: 117 ± 7 % of Vehicle | Cell Viability (% of Vehicle) RPMI-7951 [3]: 110 ± 3 % of Vehicle | Cell Viability (% of Vehicle) SK-MEL-28 [4]: 101 ± 2 % of Vehicle | Cell Viability (% of Vehicle) Jurkat [5]: 108 ± 3 % of Vehicle | Cell Viability (% of Vehicle) HeLa [6]: 88 ± 7 % of Vehicle

CCOc1ccc(/C=C2\SC(=O)N(Cc3ccncc3)C2=O)cc1 [Compound 28l, (Z)-5-(4-ethoxybenzylidene)-3-(pyridin-4-ylmethyl)thiazolidine-2,4-dione]
Cell Viability (% of Vehicle) HL-60 [1]: 82 ± 54 % of Vehicle | Cell Viability (% of Vehicle) A375 [2]: 105 ± 12 % of Vehicle | Cell Viability (% of Vehicle) RPMI-7951 [3]: 102 ± 3 % of Vehicle | Cell Viability (% of Vehicle) SK-MEL-28 [4]: 79 ± 3 % of Vehicle | Cell Viability (% of Vehicle) Jurkat [5]: 96 ± 11 % of Vehicle | Cell Viability (% of Vehicle) HeLa [6]: 81 ± 5 % of Vehicle

CCOc1ccc(/C=C2\SC(=O)N(Cc3ccc(C(=O)O)cc3)C2=O)cc1 [Compound 28q, (Z)-4-((5-(4-ethoxybenzylidene)-2,4-dioxothiazolidin-3-yl)methyl)benzoic acid]
Cell Viability (% of Vehicle) HL-60 [1]: 84 ± 37 % of Vehicle | Cell Viability (% of Vehicle) A375 [2]: 2.0 ± 0.5 % of Vehicle | Cell Viability (% of Vehicle) RPMI-7951 [3]: 34 ± 3 % of Vehicle | Cell Viability (% of Vehicle) SK-MEL-28 [4]: 59 ± 13 % of Vehicle | Cell Viability (% of Vehicle) Jurkat [5]: 85 ± 3 % of Vehicle | Cell Viability (% of Vehicle) HeLa [6]: 64 ± 2 % of Vehicle
